Reference: patent US4822780A, “Carboxamide compounds” (Otsuka Pharmaceutical Factory, Inc., priority 1987, dated 1989)

System: vascular smooth muscles (thoracic aorta)
Assay: Calcium antagonistic action in vascular smooth muscles (spiral piece of thoracic aorta, Ca2+ dose-reaction curve in presence of KCl)
Format: cell-based, Male Wistar rats
Conditions: isolated rat aorta spiral piece, 37° C.; KCl 5×10^-2 M; CaCl2 10^-4 to 3×10^-2 M; test compound 3×10^-7 to 10^-5 M; Van Rossum method; 5 samples
Description: Male Wistar rats weighing about 250 g were anesthetized with ether, hit hard in the occipital region, and the both common carotid arteries were cut to let blood, and the thoracic aorta was removed. Fat tissues depositing on the extracted blood vessel were removed, and a spiral piece of 2 mm×50 mm was prepared.
This spiral piece of aort was kept at 37° C., and was suspended in an organ bath containing Ca^2+ --free Krebs--Henseleit solution ventilated with mixed gas of 95% O2 and 5% CO2 and its contraction reaction was measured in the following method by way of an isotonic transducer.
In the first place, to the spiral piece deprived of Ca^2+, CaCl2 solution of 10^-4 to 3×10^-2 M was comulatively added in the presence of KCl of 5×10^-2 M, and the dose-reaction curve by Ca^2+ was determined, and after removing Ca^2+ again, the dose-reaction curve by Ca^2+ was determined in the presence of the test compound, and from the difference of these reactions, the pA2 value of Ca^2+ antagonistic action of the test compound was calculated. The concentration of the test compound was 3×10^-7 to 10^-5 M. (The pA2 value was calculated according to the method proposed by Van Rossum, J. M., in Arch. Int. Pharmarcodyn., 143, 299-330, 1963).

Point of comparison: CCOP(=O)(Cc1ccc(C(=O)N(Cc2ccccc2)c2ccc(OC)cc2)cc1)OCC [Example 56, 4-diethoxyphosphinylmethyl-N-benzyl-N-(4-methoxyphenyl)benzamide], “pA2 value of Ca^2+ antagonistic action” value 6.99 ± 0.11. Against it:
- CCOP(=O)(Cc1ccc(C(=O)Nc2ccccc2O)cc1)OCC [Example 13] — lower, 6.52 ± 0.10
- CCOP(=O)(Cc1ccc(C(=O)N(Cc2ccccc2)c2ccccc2)cc1)OCC [Example 45, 4-diethoxyphosphinylmethyl-N-benzyl-N-phenylbenzamide] — lower, 6.75 ± 0.08
- CCOP(=O)(Cc1ccc(C(=O)N(Cc2ccc([N+](=O)[O-])cc2)c2ccccc2)cc1)OCC [Example 46] — lower, 6.07 ± 0.12
- CCOP(=O)(Cc1cccc(C(=O)N(Cc2ccc(C(=O)OC)cc2)c2ccccc2)c1)OCC [Example 74] — lower, 6.50 ± 0.09
